Test results published in patent US7820667B2, “Methods of treating hypertension” (Daiichi Sankyo Company, Limited, priority 2005, dated 2010).

What was measured:
[1] = as reported in Japanese Patent Public Disclosure No. 25323/84; cited from earlier work
rats = assay: Acute toxicity to rats; assay type: in vivo
DOCA-salt SHRs [2] = assay: Histopathological findings in renal tissues of DOCA-salt SHR; assay type: in vivo
Text: After collecting urine and measuring blood pressure at 6 weeks, the animals was incised under anesthesia, exsanguinated from abdominal aorta and perfused with physiological saline via this site. The isolated kidney was fixed in a 10% formaldehyde solution, embedded in paraffin, then sliced to 4 μm in thickness by a microtome. Samples were stained with hematoxylin/eosin (HE) and periodic acid-Shiff. The incidences of histopathological findings on necrotizing glomerulitis and necrotizing arteriolitis were compared among the groups.

[3] = system: DOCA-salt hypertension rats; assay: Biopterin (BP) in urine by HPLC in DOCA-salt hypertension rats; assay type: in vivo, Sprague-Dawley rats; settings: BH4 10 mg/kg b.w./day orally
Text: (§1) One kidney was removed from each of 8-week-old Sprague-Dawley rats (supplied from Charles River) except for a control group.

[4] = Body weight of DOCA-salt hypertension rats; assay type: in vivo, Sprague-Dawley rats; settings: for Body weight: DOCA-salt hypertension rats, BH4 10 mg/kg b.w./day orally
Text: as §1

DOCA-salt SHRs [5] = settings: in vivo, po, 10 mg/kg/day
Experimental: One kidney was removed from 8-week old SHRs (supplied from Charles River) except for a control group. Then, the animals were divided into the following three experimental groups. • 1) A group given drinking water only (control group); sample size n=8; • 2) A group of DOCA-salt SHRs prepared by giving 30 mg/kg b.w. of deoxycorticosterone acetate (DOCA) subcutaneously once a week and 1% saline as drinking water from one week after nephrectomy (DOCA group); n 4; • 3) A group of DOCA-salt SHRs administered BH4 (10 mg/kg b.w./day) orally (DOCA+BH4 group); n=6.
Urine was collected for 24 hours using a metabolic cage at the start of experiment and after 2, 3, 4, 5 and 6 (at the termination of the observation period) weeks. At the termination of the observation period, blood sample was collected from abdominal aorta under anesthesia with Phenobarbital.
Biopterin (BP), a metabolite of BH4, was measured by a HPLC according to the procedure of Fukushima and Nixon. The effects of BH4 administration are evaluated on the basis of change of BP level in urine.
The measured values were expressed as means±standard error and evaluated statistically using two-way ANOVA test. In the following analyses, the significant level sets p<0.05.

[6] = system: DOCA-salt hypertension rats; assay: NO2/NO3 in urine (Griess method) in DOCA-salt hypertension rats; assay type: in vivo, Sprague-Dawley rats; settings: BH4 10 mg/kg b.w./day orally
Experimental: One kidney was removed from each of 8-week-old Sprague-Dawley rats (supplied from Charles River) except for a control group. […] The measurement was carried out using Nitrate-Nitrite assay kit, (kit No. 780001, Cyman Chemical Company) according to the Griess method. The values of NO2/NO3 in urine means the activity of NOS, namely, higher the value, higher the activity.

e-NOS mRNA = assay: Measurement of NOS mRNA expression in renal tissues (RT-PCR, Southern hybridization); assay type: in vivo, Sprague-Dawley rats; settings: renal cortex, DOCA+BH4 group as compared with DOCA group, normalized against MDH, FIG. 4
Experimental: as §1
Extraction of RNA from renal tissues was performed by the guanidium/cesium chloride extraction method.
Namely, a small amount of tissues collected from renal cortex of the isolated kidney was added immediately to a lysis solution 4M guanidinium thiocyanate and homogenized by a glass/Teflon homogenizer. This lysate was overlaid on 5.7M cesium chloride and centrifuged at 80,000 rpm for 2 hours, then the precipitate was dissolved in 0.1% diethyl pyrocarbonate (DEP) solution. This solution was precipitated with 2.5M ammonium acetate and ethanol at −20° C. for one hour and centrifuged at 10,000 rpm at 4° C. for 20 minutes to give a precipitate. […]
Specifically, the RT reaction solution was added to a mixture of 5′- and 3′-primers for each of e-NOS to be detected and for malate dehyadrogenase (MDH) used as an internal standard, PCR buffer, 2.5 mM dNTP mixed solution and Taq DNA polymerase. […]
PCR products were electrophoresed on 5% polyacrylamide gel and NOS mRNA expression was measured by Southern hybridization.
Specifically, the PCR reaction solution was electrophoresed on 5% polyacrylamide and then, the gel was transferred to membrane filters. […] Then, autoradiography was run at −70° C. for several hours and the exposed autoradiograms were analyzed by a densitometer. […]

[7] = system: DOCA-salt hypertension rats; assay: Blood pressure by tail-cuff method in DOCA-salt hypertension rats; assay type: in vivo, Sprague-Dawley rats; settings: BH4 10 mg/kg b.w./day orally
Experimental: One kidney was removed from each of 8-week-old Sprague-Dawley rats (supplied from Charles River) except for a control group. […] Blood pressure was measured by the tail-cuff method at the start of experiment and 2, 4 and 5 weeks.

endothelial NOS (e-NOS) = assay: Immunostaining of renal tissue NOS (anti-e-NOS antibody); assay type: in vivo, Sprague-Dawley rats; settings: renal tissues, DOCA-salt hypertension rats, BH4 10 mg/kg b.w./day orally, end of observation (5 weeks)
Text: as §1
(§2) The expression of endothelial NOS (e-NOS) and brain NOS (b-NOS) in renal tissues was examined in the sections of the isolated frozen renal tissues by immunostaining with anti-e-NOS and anti-b-NOS antibodies (Affinity Bioreagents), respectively.

brain NOS (b-NOS) = assay: Immunostaining of renal tissue NOS (anti-b-NOS antibody); assay type: in vivo, Sprague-Dawley rats; settings: renal tissues, DOCA-salt hypertension rats, BH4 10 mg/kg b.w./day orally, end of observation (5 weeks)
Text: as §1, §2

DOCA-salt SHRs [8] = assay: Blood pressure by tail-cuff method in DOCA-salt SHR; assay type: in vivo; settings: BH4 10 mg/kg b.w./day orally
Experimental: Blood pressure was measured by the tail-cuff method at the start of experiments and after 2, 3, 4, 5 and 6 weeks.

[9] = BH4 10 mg/kg b.w./day orally, kidney at 6 weeks
[10] = until termination of observation period

In the case of C[C@H](O)[C@H](O)C1CNc2nc(N)[nH]c(=O)c2N1 (stereo partly drawn) [(6R,S)-5,6,7,8-tetrahydrobiopterin], the toxicity [1] is listed as “only slightly toxic”.

For C[C@H](O)[C@H](O)[C@H]1CNc2[nH]c(N)nc(=O)c2N1.Cl.Cl [BH4 dihydrochloride], the acute toxicity (rats) was “more than 2 g/kg (b.w.)”.

With CC(O)C(O)C1CNc2nc(N)[nH]c(=O)c2N1 [BH4, (6R)-L-erythro-5,6,7,8-tetrahydrobiopterin] the “Percentage (%) of incidences of histopathological findings in renal tissues: Necrotizing angiitis” value (DOCA-salt SHRs [2]; [9]) was 3.34 ± 0.94%, the “Percentage (%) of incidences of histopathological findings in renal tissues: Necrotizing glomerulitis” value (DOCA-salt SHRs [2]; [9]) was 2.47 ± 1.07% and the “Histopathological findings (in words)” value (DOCA-salt SHRs [2]; oral administration of BH4) was “remarkably improved histopathological findings”. For the same compound, the “Change of BP in urine (in words)” value [3] was “showed an increase in the value of BP with time”, the Body weight ([4]; Start) was 383.40 g and the Body weight ([4]; Week 2) was 386.40 ± 12.84 g. For the same compound, the Body weight ([4]; Week 4) was 431.20 ± 13.31 g, the Body weight ([4]; Week 5) was 446.80 ± 15.81 g and the “Body weight (in words)” value ([4]; control, DOCA and DOCA+BH4 groups compared) was “no significant difference”. For the same compound, the “Change of BP in urine (in words)” value (DOCA-salt SHRs [5]) was “showed an increase in the value of BP with time”, the “Change of NO2/NO3 in urine (in words)” value [6] was “showed an increase in the value” and the NO2/NO3 in urine ([6]; Start) was 2.22 ± 0.7 µmol/day. For the same compound, the NO2/NO3 in urine ([6]; Week 4) was 2 ± 0.55 µmol/day, the NO2/NO3 in urine ([6]; Week 5) was 5.95 ± 1.9 µmol/day and the “expression of e-NOS mRNA” value (e-NOS mRNA) was “significantly enhanced”. The Blood pressure ([7]; Start) was 105.72 mmHg, the Blood pressure ([7]; Week 2) was 120.54 mmHg and the Blood pressure ([7]; Week 4) was 111.91 mmHg. The Blood pressure ([7]; Week 5) was 107.78 mmHg, the “Change of blood pressure (in words)” value [7, 10] was “stayed at normal blood pressures” and the “expression of e-NOS in small vessels (immunostaining)” value (endothelial NOS (e-NOS)) was “comparable to the control group or slightly enhanced”. The “expression of b-NOS in macula densa (immunostaining)” value (brain NOS (b-NOS)) was “comparable to the control group or slightly enhanced”, the Blood pressure (DOCA-salt SHRs [8]; Start) was 130.22 mmHg and the Blood pressure (DOCA-salt SHRs [8]; Week 2) was 133.60 mmHg. It also gave a Blood pressure (DOCA-salt SHRs [8]; Week 3) of 143.63 mmHg, a Blood pressure (DOCA-salt SHRs [8]; Week 4) of 150.90 mmHg and a Blood pressure (DOCA-salt SHRs [8]; Week 5) of 159.30 mmHg. For the same compound, the Blood pressure (DOCA-salt SHRs [8]; Week 6) was 162.95 mmHg and the “Change of blood pressure (in words)” value (DOCA-salt SHRs [8]; [10]) was “showed the same blood pressures level as that of the control group”.
